{"source": "patent US20220133702A1", "about": "“CYSTIC FIBROSIS TRANSMEMBRANE CONDUCTANCE REGULATOR MODULATORS FOR TREATING AUTOSOMAL DOMINANT POLYCYSTIC KIDNEY DISEASE” (The Johns Hopkins University, priority 2020, published 2022)", "key": {"[1]": {"tested_on": "PC2 in Pkd1^RC/RC mice", "assay": "Immunoblot of PC2 protein in kidney tissue, missense model", "format": "in vivo, mouse", "conditions": "treated daily from one month to 6 months", "protocol": "The levels of PC2 protein were analyzed in two mouse models of ADPKD: Pkd1^fl/fl; Pax8^rtTA; TetO-cre, which is PC1 null, and the Pkd1^R3277C/R3277C (pkd1^RC/RC) which has a missense mutation in PC1. Pkd1^RC/RC mice develop a consistent, slowly progressing polycystic kidney disease. Pkd1^RC/RC mice were treated daily with VX-809, beginning at one month, and euthanized at 6 months.\nWild-type mice were treated without doxycycline (Wt), and Pkd1^RC/RC mice were treated with doxycycline plus DMSO (RC) or with doxycycline plus VX809 (RC+VX809), as indicated. Three mice were analyzed for each treatment.\nIn Pkd1^RC/RC mice, doxycycline-induced cyst formation decreases PC2 protein."}, "[2]": {"tested_on": "GADD153", "assay": "GADD153 immunostaining of kidney sections", "format": "in vivo", "conditions": "PN21 mouse kidney sections, vs DMSO", "description": "FIG. 12A, FIG. 12B, and FIG. 12C show GADD153 expression in kidneys of Pkd1fllfl; Pax8^rtTA; TetO-cre mice. Immunofluorescence images representing the GADD expression (green) in DMSO (FIG. 12A) or VX-809 (FIG. 12B) treated PN21 Pkd1^fl/fl mouse. Columns (FIG. 12C) represent % area of GADD immunopositive (green) cells in DMSO or VX-809 treated PN21 Pkd1^fl/fl mouse kidney sections. Data are expressed as mean±1 SEM of DMSO (vehicle)-treated (n=4) and VX-809-treated (n=4) mice. Statistical analysis was performed using a 2-tailed Student t-test. DMSO, dimethyl sulfoxide. Kidneys were fixed in 4% paraformaldehyde as described (62). Used here was the GADD153 antibody (Sc-7351), goat antirabbit (A21429, AlexaFluor 555, 1:1,000; Life Technologies, Carlsbad, Calif.) and DAPI (H-1200; Vector Laboratories, Burlingame, Calif.). Pictures were acquired with a Zeiss microscope equipped a 20× objective. Cells positive for GADD153 and the total number of cells were measured with ImageJ. The results are expressed as percentages;\nGiven that VX-809 alters an ensemble of Hsps, it was evaluated whether VX-809 alters proteins associated with ER stress. To address this question, the levels of three ER stress-associated proteins were measured, 78-kDa glucose-regulated protein (GRP78), ER oxidoreductin 1 (Ero1) and DNA damage-inducible protein 3 (GADD153), also known as C/EBP homologous protein (CHOP) (37). […]"}, "[3]": {"tested_on": "CFTR", "assay": "Confocal localization of CFTR with ER, Golgi and PM markers", "format": "cell-based", "conditions": "treated vs control cells, Pearson's correlation with markers", "description": "FIG. 18A and FIG. 18B show images of confocal microscopy localization studies of CFTR and localization markers in control and treated cells (FIG. 18A) and graphs showing Pearson's correlation coefficient for CFTR and localization markers in control and VX-809 treated cells (FIG. 18B).\nThe localization of PC2 and CFTR in control cells was compared to the localization of PC2 and CFTR localization in VX-809 treated cells."}, "[4]": {"tested_on": "NHE3 in PN cells", "assay": "NHE3 activity", "format": "cell-based, mouse", "conditions": "treated PN cells vs PN cells", "protocol": "FIG. 15A and FIG. 15B show NHE3 activity in PN and PH cells (FIG. 15A and FIG. 15B) and NHE3 activity in PN cells treated with VX-809.\nFIG. 16A, FIG. 16B, and FIG. 16C show NHE activity in PN/PH cells or PN cells treated with VX-809;\nThe expression and activity of […] were evaluated. Specifically, NHE3 expression was evaluated in PN cells that were treated with VX-809. […] was also studied in PN, PH, and PN cells treated with VX-809. […] Next, NHE3 activity was evaluated in PN/PH cells or PN cells treated with VX-809. NHE3 activity was increased in PN cells treated with VX-809, as compared to PN cells (FIG. 16A). NHE3 activity was higher in control PH cells than in PN cells (FIG. 16B). […] NHE3 activity was increased in both VX-809 treated PN cells and control PH cells, as compared to control PN cells (FIG. 16C)."}, "[5]": {"tested_on": "HSP27, HSP70 and HSP90 in PN cells", "assay": "Western blot of heat shock proteins in cells", "format": "cell-based, mouse", "conditions": "10 μM, 16 h", "protocol": "FIG. 8A, FIG. 8B, FIG. 8C, FIG. 8D, FIG. 8E, FIG. 8F, FIG. 8G, and FIG. 8H show chaperone expression is altered in PH and PN cells by VX-809. […] Western blot showing expression of HSP27, HSP70 and HSP90 in VX-809 treated or control PN cells. […] (FIG. 8E). Western blot of HSP27, HSP70 and HSP90 in PH vs. PN cells. […] Whereas, Hsp70 is higher in PH vs. PN cells. Data were analyzed by non-parametric t test. Experiment was repeated 4-5 times. Cells were grown in 10-cm culture dishes at permissive conditions (33° C.) with y-interferon in culture media. Cells were then transferred to non-permissive conditions at 37° C., y-interferon free culture media and evaluated at full confluence. At day four, cells were treated with VX-809 (10 μM) for 16 h and harvested on fifth day for assay. *P<0.05., **P<0.01, ***P<0.001, ****P<0.0001;\nTo facilitate their growth in the kidney, cysts have developed an altered network of proteins that most likely serves to protect them from stress . Next, it was determined whether VX-809 would alter the levels of Hsps in pkd−/− mice and in PN cells. […] Hsp 27, 70 and 90 are all elevated in cystic kidneys compared to normal controls. […] There is no change in Hsp40. […] Both sets of data are consistent with an alteration in the heat shock response to cyst growth."}}}
{"smiles": "Cc1ccc(NC(=O)C2(c3ccc4c(c3)OC(F)(F)O4)CC2)nc1-c1cccc(C(=O)O)c1", "note": "[VX-809, lumacaftor]", "values": [{"measurement": "PC2 protein expression (normalized to vinculin)", "setting": "[1]", "value": "higher levels of PC2 expression"}, {"measurement": "GADD153 immunostaining", "setting": "[2]", "value": "strong reduction"}, {"measurement": "CFTR localization", "setting": "[3]", "value": "statistically significant move of CFTR from the ER to Basolateral and Apical Membrane"}, {"measurement": "NHE3 activity", "setting": "[4]", "value": "significantly increased"}, {"measurement": "Hsp27 expression", "setting": "[5]", "value": "reduced expression"}, {"measurement": "Hsp70 expression", "setting": "[5]", "value": "reduced expression"}, {"measurement": "Hsp90 expression", "setting": "[5]", "value": "reduced expression"}]}
